Earlier results, collected in patent US20100076037A1, “Methods of Treating Neuropathic Pain with Agonists of PPAR-gamma” (priority 2006, published 2010).
Where two headings read alike, the source gives them in different places.

Assays:
diabetic patients = settings: human, in vivo; cited from earlier work
[1] = test system: arterial smooth muscle cells (SMCs); settings: 5 or 10 microM; cited from earlier work
human macrophages = settings: 5 microM; cells exposed to high fatty acids and TGs; cited from earlier work
mPPARalpha = mPPARalpha (Mus musculus, UniProt P23204); settings: read-out: EC50 reporter gene assay, U2 OS cells; cited from earlier work
Sequence of mPPARalpha (P23204 whole entry): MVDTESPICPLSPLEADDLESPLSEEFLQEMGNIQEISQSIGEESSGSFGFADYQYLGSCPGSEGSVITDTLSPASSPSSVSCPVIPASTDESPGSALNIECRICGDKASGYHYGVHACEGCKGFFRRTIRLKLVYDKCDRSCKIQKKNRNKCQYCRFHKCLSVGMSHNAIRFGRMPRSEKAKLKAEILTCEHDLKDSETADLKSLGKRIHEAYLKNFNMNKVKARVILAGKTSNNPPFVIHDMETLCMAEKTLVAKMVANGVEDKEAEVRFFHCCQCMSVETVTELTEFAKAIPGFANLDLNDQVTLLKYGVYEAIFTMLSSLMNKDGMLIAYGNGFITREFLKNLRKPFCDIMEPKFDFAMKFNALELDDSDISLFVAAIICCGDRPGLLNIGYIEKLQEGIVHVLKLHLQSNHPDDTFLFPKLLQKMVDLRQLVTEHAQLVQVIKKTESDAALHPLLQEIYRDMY

[2] = test system: multidrug resistance protein 2; settings: cited from earlier work
[3] = 1 mg, cited from earlier work
[4] = test system: apoE*3 Leiden transgenic mice; settings: cited from earlier work
[5] = healthy males; cited from earlier work
[6] = test system: recombinant human CYPs (CYP1A2, CYP2A6, CYP2C8, CYP2C9, CYP2C19, CYP2D6 and CYP3A4); settings: 0.09 to 200 microM; cited from earlier work
high-fat-fed Wistar rats = settings: cited from earlier work
obese Zucker rats = settings: cited from earlier work
ob/ob mice = settings: cited from earlier work
[7] = cited from earlier work
P-glycoprotein = target: T1, P-glycoprotein (Homo sapiens, UniProt P08183); settings: cited from earlier work
T1 construct: host or cells: Caco2 and MDCK-MDR1 monolayers (tie to the P-gp statement is grammatically loose)
T1 sequence (P08183 whole entry): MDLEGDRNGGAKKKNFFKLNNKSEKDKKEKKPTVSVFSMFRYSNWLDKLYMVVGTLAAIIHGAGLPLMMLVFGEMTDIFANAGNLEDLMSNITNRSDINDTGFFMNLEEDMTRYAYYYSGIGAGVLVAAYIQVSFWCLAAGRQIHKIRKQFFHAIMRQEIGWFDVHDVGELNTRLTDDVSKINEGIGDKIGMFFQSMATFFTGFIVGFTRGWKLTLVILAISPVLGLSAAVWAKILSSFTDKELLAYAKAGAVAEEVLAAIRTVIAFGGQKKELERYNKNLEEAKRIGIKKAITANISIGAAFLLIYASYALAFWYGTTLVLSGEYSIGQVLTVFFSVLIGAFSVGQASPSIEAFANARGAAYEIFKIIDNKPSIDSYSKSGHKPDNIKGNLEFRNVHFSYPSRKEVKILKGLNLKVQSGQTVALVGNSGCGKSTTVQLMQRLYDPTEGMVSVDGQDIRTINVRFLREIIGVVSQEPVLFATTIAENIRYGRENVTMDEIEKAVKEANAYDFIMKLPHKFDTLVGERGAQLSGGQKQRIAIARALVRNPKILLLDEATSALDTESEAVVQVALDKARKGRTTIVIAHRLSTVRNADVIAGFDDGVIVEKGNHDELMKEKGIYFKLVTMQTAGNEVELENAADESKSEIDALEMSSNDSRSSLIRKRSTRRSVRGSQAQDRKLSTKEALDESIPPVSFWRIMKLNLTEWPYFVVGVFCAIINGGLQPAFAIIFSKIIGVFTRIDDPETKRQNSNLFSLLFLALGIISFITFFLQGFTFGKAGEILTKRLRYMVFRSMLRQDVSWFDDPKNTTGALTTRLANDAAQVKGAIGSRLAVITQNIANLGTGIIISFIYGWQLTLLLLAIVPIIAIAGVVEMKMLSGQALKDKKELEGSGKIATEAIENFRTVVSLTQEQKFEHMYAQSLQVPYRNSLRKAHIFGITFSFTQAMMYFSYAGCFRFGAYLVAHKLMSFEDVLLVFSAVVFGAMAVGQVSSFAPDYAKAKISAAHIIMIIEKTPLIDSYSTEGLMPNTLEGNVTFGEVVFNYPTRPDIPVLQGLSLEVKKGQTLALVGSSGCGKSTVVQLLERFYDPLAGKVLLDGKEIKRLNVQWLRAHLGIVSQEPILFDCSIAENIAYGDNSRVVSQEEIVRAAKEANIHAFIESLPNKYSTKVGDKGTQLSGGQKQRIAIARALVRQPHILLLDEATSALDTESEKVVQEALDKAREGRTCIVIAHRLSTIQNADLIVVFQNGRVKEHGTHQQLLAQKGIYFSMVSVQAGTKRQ

[8] = test system: human apoB/CETP double-transgenic mouse; settings: tesaglitazar 1 microM/kg/day for 2 weeks; cited from earlier work
cytochrome P450 (CYP)4A = settings: 0.13 microg/kg; cited from earlier work
[9] = test system: non-diabetic but insulin-resistant patients; settings: cited from earlier work; for reduction of prevalence of metabolic syndrome: NCEP ATPIII criteria
type 2 diabetic patients = settings: cited from earlier work; for decrease of mean fasting plasma glucose, placebo-corrected: 12 weeks
PPARalpha target protein = settings: HepG2; cited from earlier work
[10] = dose for 25% reduction in fasting plasma glucose, insulin and serum TG

SMILES: CCO[C@@H](Cc1ccc(OCCc2ccc(OS(C)(=O)=O)cc2)cc1)C(=O)O [tesaglitazar, (S)-2-ethoxy-3-[4-(2-{4-methanesulfonyloxyphenyl}ethoxy)phenyl]propanoic acid]
- rates of edema (diabetic patients): 4.2 to 6.8%
- decrease of affinity of human LDL for unbound GAGs [1]: 3- to 4 fold
- linoleate-induced production of LDL-binding GAGs [1]: abolished
- cholesterol efflux, % of the control level (human macrophages): 156%
- EC50 (mPPARalpha): 32 µM
- transport in Caco2 and MDCK-MDR1 monolayers [2]: apparently transported by multidrug resistance protein 2
- Tmax ([3]; fasted state): 1 h
- Tmax ([3]; fed state): 2.5 h
- reduction of plasma cholesterol levels ([4]; 0.5 microg/kg of diet, low- or high-fat diets): approximately 21.5%
- reduction of TG levels ([4]; 0.5 microg/kg of diet): approximately 40%
- reduction of cross-sectional area of atheromic lesions in the aortic root ([4]; high-fat fed, 28 weeks): 92%
- reduction of cross-sectional area of atheromic lesions in the aortic root ([4]; low-fat fed, 16 weeks): 65%
- pharmacokinetic interactions with glibenclamide or metformin [5]: No pharmacokinetic interactions
- effect on activity of CYP drug metabolizing enzymes [6]: no effect
- basal TG levels (high-fat-fed Wistar rats; 1 micromol/kg/day for 1 week): reduced
- increase of glucose infusion rate during clamping (high-fat-fed Wistar rats; 1 micromol/kg/day for 1 week): 29%
- reduction of basal plasma insulin levels (high-fat-fed Wistar rats; 1 micromol/kg/day for 1 week): 36%
- increase of uptake of non-esterified fatty acids in white adipose tissue (high-fat-fed Wistar rats; 1 micromol/kg/day for 3 weeks, basal conditions): 52%
- free fatty acid utilization in adipose tissue, skeletal muscle, liver and heart (obese Zucker rats; 3 micromol/kg/day for 3 weeks, insulin level-clamped): reduced
- glucose utilization in muscle and fat (obese Zucker rats; 3 micromol/kg/day for 3 weeks): increased
- measures of whole-body insulin sensitivity (obese Zucker rats; 3 micromol/kg/day orally, 3 or 4 weeks): consistently improved or normalized
- normalization of total insulin (obese Zucker rats; basal conditions, toward lean control): 76%
- normalization of C-peptide (obese Zucker rats; basal conditions): 61%
- normalization of TGs (obese Zucker rats; basal conditions): 67%
- normalization of free fatty acids (obese Zucker rats; basal conditions): 15%
- glucose infusion rate higher than required in lean controls (obese Zucker rats; clamp conditions): 13%
- increase of rate of glucose infusion vs untreated rats (obese Zucker rats; clamp conditions): 7.6 fold
- normalization of C-peptide (obese Zucker rats; clamp conditions): 63%
- normalization of TGs (obese Zucker rats; clamp conditions): 72%
- normalization of free fatty acids (obese Zucker rats; clamp conditions): 70%
- normalization of total insulin (obese Zucker rats; clamp conditions): 82%
- VLDL apolipoprotein (apo)CIII content (obese Zucker rats; fasted obese Zucker rats): reduced
- increase of plasma TG clearance (obese Zucker rats; fasted obese Zucker rats): 490%
- reduction of rate of hepatic TG production (obese Zucker rats; fasted obese Zucker rats): 47%
- normalization of postprandial excursion in plasma glucose (obese Zucker rats; glucose/TG (1.7/2.0 g/kg) test meal): 80%
- normalization of postprandial excursion in TGs (obese Zucker rats; glucose/TG test meal): 92%
- normalization of postprandial excursion in free fatty acids (obese Zucker rats; glucose/TG test meal): 75%
- normalization of postprandial excursion in insulin (obese Zucker rats; glucose/TG test meal): 85%
- hyperglycemia (ob/ob mice; 1 micromol/kg/day for 1 week): normalized
- potency relative to pioglitazone (ob/ob mice; [10]): 250 fold
- potency relative to rosiglitazone (ob/ob mice; [10]): 7 fold
- AUC ([7]; 1 mg intravenous): 16.2 micromolxh/l
- AUC ([7]; 1 mg oral): 16.1 micromolxh/l
- adverse events ([7]; 1 mg po or iv, healthy volunteers): no serious adverse events
- oral bioavailability ([7]; 1 mg): ~100%
- clearance (Cl) ([7]; in vivo): 0.16 L/h
- elimination half-life ([7]; in vivo): ~45 h
- protein-bound ([7]; in vivo): 99.9%
- volume of distribution at steady state (Vdss) ([7]; in vivo): 9.1 L
- Cmax ([7]; single 1-mg oral dose): 610 nM
- median Tmax ([7]; single 1-mg oral dose): ~0.5 h
- substrate of P-glycoprotein (P-glycoprotein): not substrates of P-glycoprotein
- plasma TGs, apoB100 and plasma CETP activity [8]: reduced
- upregulation of CYP4A relative to controls (cytochrome P450 (CYP)4A): 15 fold
- mean increase in serum creatinine ([9]; 0.1 mg): 1 µmol/L
- patients with adverse events ([9]; 0.1 mg): 65%
- reduction in mean hemoglobin level ([9]; 0.1 mg): 0.16 mmol/L
- patients with adverse events ([9]; 0.25 mg): 51%
- reduction of prevalence of metabolic syndrome ([9]; 0.5 mg): 49%
- fall in prevalence of impaired fasting glucose ([9]; 0.5 mg): 23%
- patients with adverse events ([9]; 0.5 mg): 67%
- mean reduction in fasting serum TGs, placebo-corrected ([9]; 1 mg, 12 weeks): 37%
- reduction of prevalence of metabolic syndrome ([9]; 1.0 mg): 45%
- reduction of AUC for plasma free fatty acids ([9]; 1 mg, after lipid-rich meal): 29%
- reduction of AUC for plasma insulin ([9]; 1 mg, after lipid-rich meal): 31%
- reduction of AUC for serum TGs ([9]; 1 mg, after lipid-rich meal): 41%
- reduction of AUC for serum glycerol ([9]; 1 mg, after lipid-rich meal): 34%
- reduction of plasma glucose level at 2 h ([9]; 1 mg, after lipid-rich meal): 27%
- increase in serum HDL-cholesterol ([9]; 1 mg): 16%
- mean reduction in fasting insulin ([9]; 1 mg): 35%
- mean reduction in non-HDL-cholesterol ([9]; 1 mg): 15%
- mean reduction in non-esterified fatty acids ([9]; 1 mg): 40%
- mean reduction in plasma glucose concentration ([9]; 1 mg): 0.47 mmol/L
- reduction in mean hemoglobin level ([9]; 1 mg): 0.55 mmol/L
- fall in prevalence of impaired fasting glucose ([9]; 1.0 mg): 59%
- mean increase in serum creatinine ([9]; 1.0 mg): 8 µmol/L
- patients with adverse events ([9]; 1.0 mg): 60%
- increase in weight ([9]; 0.5 and 1 mg, 12 weeks): approximately 1 kg
- increase of ApoA-1 ([9]; 1-mg dose): 4%
- reduction of ApoB ([9]; 1-mg dose): 12%
- reduction of ApoB/ApoA-1 ratio ([9]; 1-mg dose): 16%
- reduction of ApoCIII ([9]; 1-mg dose): 25%
- decrease of mean fasting plasma glucose, placebo-corrected (type 2 diabetic patients; 0.1 mg once daily): 8.9 mg/dL
- decrease of mean fasting plasma glucose, placebo-corrected (type 2 diabetic patients; 0.5 mg): 30.3 mg/dL
- decrease of mean fasting plasma glucose, placebo-corrected (type 2 diabetic patients; 1.0 mg): 41.1 mg/dL
- greatest increase in serum HDL-cholesterol (type 2 diabetic patients; 1 mg): 15.0%
- decrease of mean fasting plasma glucose, placebo-corrected (type 2 diabetic patients; 2.0 mg): 55.0 mg/dL
- decrease of mean fasting plasma glucose, placebo-corrected (type 2 diabetic patients; 3.0 mg): 60.9 mg/dL
- greatest reduction of LDL-cholesterol (type 2 diabetic patients; 3 mg): 17.3%
- greatest reduction of VLDL-cholesterol (type 2 diabetic patients; 3 mg): 52.5%
- maximum reduction in free fatty acids (type 2 diabetic patients; 2-mg dose): 36.7%
- maximum reduction in serum TGs (type 2 diabetic patients; 2-mg dose): 41.0%
- potency relative to bezafibrate (PPARalpha target protein): approximately 10 fold
